# Source: EP0396024A2, “Esters, medicaments containing them and preparation of these esters and medicaments” (Grünenthal GmbH, priority 1989, dated 1990)
# Key:
# Ratten = test: Mean arterial blood pressure in pentobarbital-anaesthetised rats, 10 min i.v. infusion as lipid emulsion; assay type: in vivo; settings: mean arterial pressure in % of baseline, mean of 4 rats
# Experimental: So wurde an durch intraperitoneale Injektion von 60 mg/kg Natriumpentobarbital narkotisierten Ratten über einen Carotis-Katheter mit Hilfe eines Druckübermittlers der Blutdruck überwacht. Den Tieren (in Gruppen von je 4 Tieren) wurden dann für jeweils 10 Minuten über einen in die rechte vena femoralis eingesetzten Katheter • 1) 10,0 µg/kg/min der Verbindung A (R₁ = H) • 2) 9,6 µg/kg/min der Verbindung B (R₁ = H) • 3) 6,2 µg/kg/min des Esters der Formel I (X = 0) bzw. • 4) 10,5 µg/kg/min des Esters der Formel I (X = CH₂) injiziert, wobei diese Verbindungen in Form einer Lipidemulsion (vgl. Mizushima et al. J. Pharm. Pharmacol. 34 (1982) 49 - 50 und Ann. Rheum. Dis. 41 (1982) 263 - 267) zur Anwendung kamen. Dabei ergaben sich fol gende Werte des mittleren arteriellen Blutdrucks (in % des Ausgangswertes; jeweils als Mittelwert für die Tiere einer Gruppe): […]
# [1] = test system: ADP-induzierten Thrombozytenaggregation; test: ADP-induced platelet aggregation (platelet count fall) in the urethane-anaesthetised rat after oral dosing; assay type: in vivo, Ratte; settings: 100 µg/kg ADP i.v. bolus
# Experimental: Zur Bestimmung der ADP-induzierten Thrombozytenaggregation an der Urethan-narkotisierten Ratte nach oraler Gabe der Vergleichssubstanzen wurde den Tieren ein Carotis-Katheter eingesetzt und über diesen kontinuierlich Blut entnommen. Nach Zumischen von Natriumzitrat wurde in einem Technicon-Thrombocounter die Thrombozytenzahl bestimmt. 15 Minuten und unmittelbar vor der Gabe der Prüfsubstanz sowie 15, 30, 45 und 60 min. nach der Prüfsubstanzgabe wurden über die vena jugularis jeweils 100 µg/kg ADP als Bolus injiziert und der Thrombozytenabfall unter der ADP-Injektion bestimmt. Der Mittelwert der beiden Werte vor der Prüfsubstanzgabe wurde als Ausgangs-Kontrollwert genommen und die Werte nach Prüfsubstanzgabe als %-Änderung gegenüber diesem Wert bestimmt.
# [2] = test system: durch ADP induzierten Blutplättchenaggregation; settings: rat plasma; in % of the effect of the free acid; cited from earlier work
# Hunden = settings: dogs; potency in % of the free acid; cited from earlier work
# [3] = test system: menschlichen Blutplättchen; settings: aggregation induced by various agents; compared with natural Prostacyclin; cited from earlier work
# [4] = 15 min after oral dose of 10 mg/kg
# [5] = 30 min after oral dose of 10 mg/kg
# [6] = 45 min after oral dose of 10 mg/kg
# [7] = 60 min after oral dose of 10 mg/kg
smiles,measurement,setting,value
"CC(C)(C)C(=O)OCOC(=O)c1cccc(/C=C2/C[C@@H]3[C@@H](/C=C/[C@@H](O)C4CCCCC4)[C@H](O)C[C@@H]3O2)c1 [I (X = 0), 2-Oxa-3Z-(m-pivaloyloxymethyloxycarbonyl-benzyliden)-6β-(3′S-hydroxy-3′-cyclohexyl-1′E-propenyl)-7α-hydroxy-cis-bicyclo[3.3.0]octan]",Relativer Blutdruck (%) Minuten nach Injektionsbeginn,"Ratten; 5 min, 6,2 µg/kg/min i.v. for 10 min",58%
same,Relativer Blutdruck (%) Minuten nach Injektionsbeginn,"Ratten; 10 min, 6,2 µg/kg/min i.v. for 10 min",62%
same,Relativer Blutdruck (%) Minuten nach Injektionsbeginn,"Ratten; 20 min, 6,2 µg/kg/min i.v. for 10 min",81%
"O=C(O)c1cccc(/C=C2\C[C@H]3C[C@@H](O)[C@H](/C=C/[C@@H](O)C4CCCCC4)[C@H]3C2)c1 (relative stereo) [B(R₁=H), 3E-(m-Carboxybenzyliden)-6β-(3′S-hydroxy-3′-cyclohexyl-1′E-propenyl)-7α-hydroxy-cis-bicyclo-[3.3.0]octan, reference compound]",Relativer Blutdruck (%) Minuten nach Injektionsbeginn,"Ratten; 5 min, 9,6 µg/kg/min i.v. for 10 min",80%
same,Relativer Blutdruck (%) Minuten nach Injektionsbeginn,"Ratten; 10 min, 9,6 µg/kg/min i.v. for 10 min",84%
same,Relativer Blutdruck (%) Minuten nach Injektionsbeginn,"Ratten; 20 min, 9,6 µg/kg/min i.v. for 10 min",105%
same,Thrombozytenaggregationshemmung in % des Ausgangskontrollwertes nach Minuten,[1]; [4],"68,9±6,8%"
same,Thrombozytenaggregationshemmung in % des Ausgangskontrollwertes nach Minuten,[1]; [5],"55,1±6,7%"
same,Thrombozytenaggregationshemmung in % des Ausgangskontrollwertes nach Minuten,[1]; [6],"51,8±6,4%"
same,Thrombozytenaggregationshemmung in % des Ausgangskontrollwertes nach Minuten,[1]; [7],"38,1±6,3%"
"CCCCCC(O)/C=C/C1C(O)CC2CC(=CCCCC(=O)OC)CC21 (stereo not drawn) [Methylester der (5EZ,13E)(9α,11α,15α)-6,9-methano-11,15-dihydroxyprosta-5,13-diensäure]","Hemmung der durch ADP induzierten Blutplättchenaggregation, Wirkung relativ zur freien Säure",[2],~80%
same,"Wirkung auf den Blutdruck, relativ zur freien Säure",Hunden,50 - 60%
"CC(C)(C)C(=O)OCOC(=O)c1cccc(/C=C2\C[C@H]3C[C@@H](O)[C@H](/C=C/[C@@H](O)C4CCCCC4)[C@H]3C2)c1 [I(X=CH₂), 3E-(m-Pivaloyloxymethyloxycarbonyl-benzyliden)-6β-(3′S-hydroxy-3′-cyclohexyl-1′E-propenyl)-7α hydroxy-cis-bicyclo[3.3.0]octan]",Relativer Blutdruck (%) Minuten nach Injektionsbeginn,"Ratten; 5 min, 10,5 µg/kg/min i.v. for 10 min",62%
same,Relativer Blutdruck (%) Minuten nach Injektionsbeginn,"Ratten; 10 min, 10,5 µg/kg/min i.v. for 10 min",51%
same,Relativer Blutdruck (%) Minuten nach Injektionsbeginn,"Ratten; 20 min, 10,5 µg/kg/min i.v. for 10 min",69%
same,Thrombozytenaggregationshemmung in % des Ausgangskontrollwertes nach Minuten,[1]; [4],"24,0±3,0%"
same,Thrombozytenaggregationshemmung in % des Ausgangskontrollwertes nach Minuten,[1]; 15 min after oral dose of 100 mg/kg,"59,4±3,0%"
same,Thrombozytenaggregationshemmung in % des Ausgangskontrollwertes nach Minuten,[1]; [5],"28,1±3,8%"
same,Thrombozytenaggregationshemmung in % des Ausgangskontrollwertes nach Minuten,[1]; 30 min after oral dose of 100 mg/kg,"63,3±6,8%"
same,Thrombozytenaggregationshemmung in % des Ausgangskontrollwertes nach Minuten,[1]; [6],"29,1±3,9%"
same,Thrombozytenaggregationshemmung in % des Ausgangskontrollwertes nach Minuten,[1]; 45 min after oral dose of 100 mg/kg,"68,1±2,0%"
same,Thrombozytenaggregationshemmung in % des Ausgangskontrollwertes nach Minuten,[1]; [7],"30,3±4,6%"
same,Thrombozytenaggregationshemmung in % des Ausgangskontrollwertes nach Minuten,[1]; 60 min after oral dose of 100 mg/kg,"71,0±4,4%"
"CCCCCC(O)C#CC1C(O)CC2OC(=CCCCC(=O)OC)CC21 (stereo not drawn) [13,14-Dehydroprostacyclinmethylester]",Aggregationshemmung von menschlichen Blutplättchen,[3],ähnlich wirksam
"O=C(O)c1cccc(/C=C2/C[C@@H]3[C@@H](/C=C/[C@@H](O)C4CCCCC4)[C@H](O)C[C@@H]3O2)c1 (relative stereo) [A (R₁ = H), 2-Oxa-3Z-(m-carboxybenzyliden)-6β-(3′-S-hydroxy-3′cyclohexyl-1′E-propenyl)-7α-hydroxy-cis-bicyclo[3.3.0] octan, reference compound]",Relativer Blutdruck (%) Minuten nach Injektionsbeginn,"Ratten; 5 min, 10,0 µg/kg/min i.v. for 10 min",64%
same,Relativer Blutdruck (%) Minuten nach Injektionsbeginn,"Ratten; 10 min, 10,0 µg/kg/min i.v. for 10 min",65%
same,Relativer Blutdruck (%) Minuten nach Injektionsbeginn,"Ratten; 20 min, 10,0 µg/kg/min i.v. for 10 min",94%
